Read-outs that look alike come from different tables or passages of the source.
Legend:
Format in all cases: cell-based
C. perfringens = tested on: C. perfringens; design: Minimal Inhibitory Concentration (bioactivity data): unit not given here; details: for M.I.C.: Table III, mass basis, no correction for purity; for Minimal Inhibitory Concentration (bioactivity data): Table IV (separate study)
S. faecalis = details: for M.I.C.: Table III, mass basis, no correction for purity; for Minimal Inhibitory Concentration (bioactivity data): Table IV (separate study)
S. bovis = details: strain JB1; for Minimal Inhibitory Concentration (bioactivity data): Table IV (separate study)
B. fragilis = details: strain UC9370; for Minimal Inhibitory Concentration (bioactivity data): Table IV (separate study)
B. thetaiotaomicron = details: strain UC9014; for Minimal Inhibitory Concentration (bioactivity data): Table IV (separate study)
Method: (§1) The assay measures the ability of a compound to inhibit the growth of certain types of anaerobic bacteria which normally inhabit the gut of poultry, swine or cattle.
(§2) Two mg/ml solutions of the drugs to be tested are made in 10% v/v ethanol/water. This stock is then diluted to one mg per ml and then further diluted through a series of ten-two fold dilutions. At each concentration an aliquot is placed in a sterile petri plate. Nine volumes of molten agar are then added to each plate, mixed and allowed to harden at room temperature. These plates are then transferred to a Coy chamber and allowed to dry and equilibrate with the oxygen free atmosphere.
(§3) Organisms used for MIC testing are inoculated into broth media, and incubated 18-24 h at 39° C. prior to use. The cultures are then diluted to equal the turbidity of a 0.5 MacFarland barium sulfate standard, except for the porcine isolates P108-3C1, P105-1C3 and P105-1C4 which are diluted 1:1. All inoculations and dilutions are performed in the anaerobic chamber using broth media and syringe transfer through the butyl robber stoppers.
(§4) Freshly prepared and diluted cultures are loaded into the wells of a Steers replicator device. This apparatus can dispense ca 10 μl of each of 32 cultures onto the surface of the preincubated agar plates. One hour after the inoculation, the inoculum will have been absorbed and the plates are inverted and incubated at 38°-39° C. for 48 h. Plates are then removed from the chamber and the MIC for the test compounds determined. MIC's are reported as the lowest concentration of a compound which prevented detectable growth of a test organism on the agar plates. […] Thus, each set of test plates yields individual MIC values for each of the 32 test organisms.

E. lentum = details: strain L-34; Table IV (separate study)
B. fibrisolvens = details: for M.I.C.: Table III, mass basis, no correction for purity; for Minimal Inhibitory Concentration (bioactivity data): Table IV (separate study)
M. elsdenii = details: strain B159; for Minimal Inhibitory Concentration (bioactivity data): Table IV (separate study)
L. multiparus = details: strain 40; for Minimal Inhibitory Concentration (bioactivity data): Table IV (separate study)
S. ruminantium = details: for M.I.C.: Table III, mass basis, no correction for purity; for Minimal Inhibitory Concentration (bioactivity data): Table IV (separate study)
R. amylophilus = details: strain H18; for Minimal Inhibitory Concentration (bioactivity data): Table IV (separate study)
R. flavefaciens = details: for M.I.C.: Table III, mass basis, no correction for purity; for Minimal Inhibitory Concentration (bioactivity data): Table IV (separate study)
E. ruminantium = details: strain GA195
P. ruminicola = details: strain 118B; for Minimal Inhibitory Concentration (bioactivity data): Table IV (separate study)
F. necrophorum = details: for M.I.C.: Table III, mass basis, no correction for purity; for Minimal Inhibitory Concentration (bioactivity data): Table IV (separate study)
S. hyodysenteriae = tested on: S. hyodysenteriae; design: unit not given here; details: Table IV (separate study)
Method: as §1, §2, §3, §4

[1] = tested on: anaerobic bacteria which normally inhabit the gut of poultry, swine or cattle; assay: in vitro MIC assay, overall comparison of components across the test organisms; details: conclusion from Tables III and IV
Method: as §1, §2, §3, §4

[2] = Table III, mass basis, no correction for purity

C=C(NC(=O)C(=C)NC(=O)C(=C)NC(=O)c1ccc2c(n1)-c1coc(n1)C(=C)NC(=O)C(=C)NC(=O)c1nc(oc1C)/C(=C/C)NC(=O)c1csc(n1)C(OC)NC(=O)c1nc(oc1C)/C(=C/C(C)O)NC(=O)[C@H]([C@@H](C)O)NC(=O)c1csc-2n1)C(N)=O (some centres unmarked) [Antibiotic 10381b, sulfomycin I, reference compound]
12.5: Minimal Inhibitory Concentration (bioactivity data) (C. perfringens; strain A82-1) | Minimal Inhibitory Concentration (bioactivity data) (C. perfringens; strain P1051C3) | Minimal Inhibitory Concentration (bioactivity data) (S. faecalis; strain 71A01)
12.5 µg/mL: M.I.C. (S. faecalis; strain CCS1-03) | M.I.C. (S. faecalis; strain P1051C4) | M.I.C. (B. thetaiotaomicron; [2])
25.0: Minimal Inhibitory Concentration (bioactivity data) (B. thetaiotaomicron)
50.0: Minimal Inhibitory Concentration (bioactivity data) (B. fragilis)
100.0 µg/mL: M.I.C. (S. ruminantium; strain GA31) | M.I.C. (F. necrophorum; strain FN5052)
50.0 µg/mL: M.I.C. (C. perfringens; strain P1051C3) | M.I.C. (F. necrophorum; strain FN4070)
second most active: in vitro activity ranking of the individual components [1]
25.0 µg/mL: M.I.C. (S. faecalis; strain 71A01) | M.I.C. (B. fragilis; [2])
1.6: Minimal Inhibitory Concentration (bioactivity data) (C. perfringens; strain P1083C1) | Minimal Inhibitory Concentration (bioactivity data) (C. perfringens; strain UC9452) | Minimal Inhibitory Concentration (bioactivity data) (B. fibrisolvens; strain 49) | Minimal Inhibitory Concentration (bioactivity data) (L. multiparus) | Minimal Inhibitory Concentration (bioactivity data) (S. ruminantium; strain GA192) | Minimal Inhibitory Concentration (bioactivity data) (R. amylophilus) | Minimal Inhibitory Concentration (bioactivity data) (R. flavefaciens; strain FD1)
> 100: Minimal Inhibitory Concentration (bioactivity data) (M. elsdenii) | Minimal Inhibitory Concentration (bioactivity data) (S. hyodysenteriae; strain 16-4) | Minimal Inhibitory Concentration (bioactivity data) (S. hyodysenteriae; strain B204)
< 0.2 µg/mL: M.I.C. (P. ruminicola; [2])
1.6 µg/mL: M.I.C. (C. perfringens; strain 71A02) | M.I.C. (L. multiparus; [2]) | M.I.C. (R. flavefaciens; strain FD1)
0.8: Minimal Inhibitory Concentration (bioactivity data) (C. perfringens; strain A83-RKP) | Minimal Inhibitory Concentration (bioactivity data) (C. perfringens; strain CCS2-09) | Minimal Inhibitory Concentration (bioactivity data) (S. bovis) | Minimal Inhibitory Concentration (bioactivity data) (B. fibrisolvens; strain D1) | Minimal Inhibitory Concentration (bioactivity data) (S. ruminantium; strain GA31) | Minimal Inhibitory Concentration (bioactivity data) (R. flavefaciens; strain C94)
0.8 µg/mL: M.I.C. (C. perfringens; strain A83-RKP) | M.I.C. (C. perfringens; strain CCS2-09) | M.I.C. (B. fibrisolvens; strain D1) | M.I.C. (R. flavefaciens; strain C94)
> 100.0 µg/mL: M.I.C. (M. elsdenii; [2]) | M.I.C. (S. ruminantium; strain GA192) | M.I.C. (R. amylophilus; [2])
100: Minimal Inhibitory Concentration (bioactivity data) (F. necrophorum; strain FN4070) | Minimal Inhibitory Concentration (bioactivity data) (F. necrophorum; strain FN5052)
3.1 µg/mL: M.I.C. (C. perfringens; strain A82-1) | M.I.C. (C. perfringens; strain A83-3) | M.I.C. (C. perfringens; strain UC9452) | M.I.C. (S. bovis; [2])
0.4 µg/mL: M.I.C. (C. perfringens; strain P1083C1) | M.I.C. (C. perfringens; strain RF1B04) | M.I.C. (E. ruminantium; [2])
6.3: Minimal Inhibitory Concentration (bioactivity data) (S. faecalis; strain CCS1-03)
6.3 µg/mL: M.I.C. (C. perfringens; strain CCS1-11) | M.I.C. (B. fibrisolvens; strain 49)
3.1: Minimal Inhibitory Concentration (bioactivity data) (S. faecalis; strain P1051C4)
< 0.2: Minimal Inhibitory Concentration (bioactivity data) (C. perfringens; strain 71A02) | Minimal Inhibitory Concentration (bioactivity data) (C. perfringens; strain A83-3) | Minimal Inhibitory Concentration (bioactivity data) (C. perfringens; strain CCS1-11) | Minimal Inhibitory Concentration (bioactivity data) (C. perfringens; strain RF1B04) | Minimal Inhibitory Concentration (bioactivity data) (E. lentum) | Minimal Inhibitory Concentration (bioactivity data) (P. ruminicola)

C=C(NC(=O)c1ccc2c(n1)-c1nc(oc1C)C(C)NC(=O)c1csc(n1)C(C)NC(=O)c1nc(oc1C)CNC(=O)C(C(C)C)NC(=O)c1csc-2n1)C(N)=O (centres unmarked) [Antibiotic 10381w]
12.5: Minimal Inhibitory Concentration (bioactivity data) (C. perfringens; strain A83-3) | Minimal Inhibitory Concentration (bioactivity data) (S. ruminantium; strain GA192)
< 0.2: Minimal Inhibitory Concentration (bioactivity data) (P. ruminicola)
considerably less active: in vitro activity ranking of the individual components [1]
100: Minimal Inhibitory Concentration (bioactivity data) (C. perfringens; strain RF1B04) | Minimal Inhibitory Concentration (bioactivity data) (R. flavefaciens; strain C94)
25: Minimal Inhibitory Concentration (bioactivity data) (E. ruminantium; Table IV (separate study))
1.6: Minimal Inhibitory Concentration (bioactivity data) (S. ruminantium; strain GA31)
> 100: Minimal Inhibitory Concentration (bioactivity data) (C. perfringens; strain A82-1) | Minimal Inhibitory Concentration (bioactivity data) (C. perfringens; strain A83-RKP) | Minimal Inhibitory Concentration (bioactivity data) (C. perfringens; strain CCS2-09) | Minimal Inhibitory Concentration (bioactivity data) (C. perfringens; strain P1051C3) | Minimal Inhibitory Concentration (bioactivity data) (C. perfringens; strain P1083C1) | Minimal Inhibitory Concentration (bioactivity data) (C. perfringens; strain UC9452) | Minimal Inhibitory Concentration (bioactivity data) (S. faecalis; strain 71A01) | Minimal Inhibitory Concentration (bioactivity data) (S. faecalis; strain CCS1-03) | Minimal Inhibitory Concentration (bioactivity data) (S. faecalis; strain P1051C4) | Minimal Inhibitory Concentration (bioactivity data) (S. bovis) | Minimal Inhibitory Concentration (bioactivity data) (B. fragilis) | Minimal Inhibitory Concentration (bioactivity data) (B. thetaiotaomicron) | Minimal Inhibitory Concentration (bioactivity data) (B. fibrisolvens; strain 49) | Minimal Inhibitory Concentration (bioactivity data) (B. fibrisolvens; strain D1) | Minimal Inhibitory Concentration (bioactivity data) (M. elsdenii) | Minimal Inhibitory Concentration (bioactivity data) (L. multiparus) | Minimal Inhibitory Concentration (bioactivity data) (R. amylophilus) | Minimal Inhibitory Concentration (bioactivity data) (R. flavefaciens; strain FD1) | Minimal Inhibitory Concentration (bioactivity data) (F. necrophorum; strain FN4070) | Minimal Inhibitory Concentration (bioactivity data) (F. necrophorum; strain FN5052) | Minimal Inhibitory Concentration (bioactivity data) (S. hyodysenteriae; strain 16-4) | Minimal Inhibitory Concentration (bioactivity data) (S. hyodysenteriae; strain B204)
25.0: Minimal Inhibitory Concentration (bioactivity data) (E. lentum)

From US5736510A, “Antibiotics 10381v, w, x,y, z1, z2, pre-b and t” (priority 1996, dated 1998)
